The source of these data is article PMC5431781, “Structural studies of the periplasmic portion of the diguanylate cyclase CdgH from Vibrio cholerae” (Scientific Reports, 2017).

Read-outs that look alike come from different tables or passages of the source.

In experiment [1] the target is PBPb-I domain of CdgH (residues 46–250) (Vibrio cholerae, UniProt Q9KT38). It is filed as binding.
The target of another experiment is LAOBP. Also on record: method as in PMID 1400387. The following applies: cited from earlier work.

PBPb-I domain of CdgH (residues 46–250), sequence (Q9KT38 46-250 limits assumed): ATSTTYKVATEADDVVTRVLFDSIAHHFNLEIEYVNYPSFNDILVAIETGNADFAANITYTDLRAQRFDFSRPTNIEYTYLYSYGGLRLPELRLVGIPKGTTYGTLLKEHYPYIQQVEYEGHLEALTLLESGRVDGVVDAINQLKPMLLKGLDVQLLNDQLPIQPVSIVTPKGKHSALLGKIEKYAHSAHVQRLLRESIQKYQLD

As to `N=C(N)NCCC[C@H](N)C(=O)O` [L-Arg, L-arginine], in experiment [1] (pH 8), the ΔH was -12.87 ± 0.04 kcal/mol. The Kd (usually the free concentration of one partner at which half of the binding sites on the other are occupied at equilibrium, for simple one-to-one binding) on LAOBP is 14 nM.
`NC(=O)CC[C@H](N)C(=O)O` [L-Gln, L-glutamine] displayed a ΔH in experiment [1] (pH 8) of -3.57 ± 1.02 kcal/mol.
`N[C@@H](Cc1c[nH]cn1)C(=O)O` [L-His, L-histidine]: the ΔH in experiment [1] (pH 8) is -7.90 ± 0.28 kcal/mol.
With `NCCCC[C@H](N)C(=O)O` [L-Lys, L-lysine], the “binding affinity weaker than that with L-arginine” value in experiment [1] was “about 18 fold”. The same compound yielded a ΔH in experiment [1] (pH 8) of -6.02 ± 0.05 kcal/mol.
In experiment [1] (pH 8), `NCCC[C@H](N)C(=O)O` [L-Orn, L-ornithine] showed a Ka of 240000 ± 33700 M⁻¹ and a ΔH of -3.61 ± 0.08 kcal/mol. In experiment [1] (pH 8, read-out: Kd), the Kd worked out at 4170 nM.
With `N[C@@H](CC(=O)O)C(=O)O` [L-aspartate], the Kd entry in experiment [1] (pH 8) was “no measurable binding affinity”.
